The record followed here is US9924716B2, “Molecules having pesticidal utility, and intermediates, compositions, and processes, related thereto” (Dow AgroSciences LLC, priority 2016, dated 2018).

Each structure is given as a SMILES string.

Format in all cases: in vivo
Experiment [1] deals with Cabbage Looper (Trichoplusia ni, TRIPNI) second instar larvae. The experiment can be described thus: Bioassay on Cabbage Looper (CL), 128-well diet tray assay. The conditions noted are these: Cabbage Looper, Table ABC Biological Results, read-out: CL rating. A digest of the protocol: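 Second instar larvae (1–5 per well) on artificial diet surface-treated with 50 μg/cm² compound in 90:10 acetone-water, eight wells per compound. Held 5–7 days at 25 °C, 14:10 light-dark; percent mortality averaged across wells.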

Experiment [2] concerns Yellow Fever Mosquito (Aedes aegypti, AEDSAE) larvae. The experiment can be described thus: Bioassay on Yellow Fever Mosquito (YFM), 96-well plate larval assay. The conditions noted are these: Table ABC Biological Results. On the procedure:
Certain molecules disclosed in this document were tested against YFM using procedures described in the following paragraph. In the reporting of the results, the “GPA & YFM Rating Table” was used (See Table Section).
Master plates containing 400 μg of a molecule dissolved in 100 μL of dimethyl sulfoxide (DMSO) (equivalent to a 4000 ppm solution) are used. A master plate of assembled molecules contains 15 μL per well. To this plate, 135 μL of a 90:10 water:acetone mixture is added to each well. A robot (Biomek® NXP Laboratory Automation Workstation) is programmed to dispense 15 μL aspirations from the master plate into an empty 96-well shallow plate (“daughter” plate). There are 6 reps (“daughter” plates) created per master. The created daughter plates are then immediately infested with YFM larvae.
The day before plates are to be treated, mosquito eggs are placed in Millipore water containing liver powder to begin hatching (4 g. into 400 mL). After the daughter plates are created using the robot, they are infested with 220 μL of the liver powder/larval mosquito mixture (about 1 day-old larvae). After plates are infested with mosquito larvae, a non-evaporative lid is used to cover the plate to reduce drying. Plates are held at room temperature for 3 days prior to grading. After 3 days, each well is observed and scored based on mortality. The results are indicated in the table entitled “Table ABC: Biological Results” (See Table Section).

Experiment [3] has as its system Beet Armyworm (Spodoptera exigua, LAPHEG) second instar larvae. Nature of the experiment: Bioassay on Beet Armyworm (BAW), 128-well diet tray assay. Conditions: Beet Armyworm, Table ABC Biological Results, read-out: BAW rating. The essentials: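 Second-instar larvae, one to five per well, on artificial diet surface-treated with 50 μg/cm^2 compound in acetone-water, dried; eight wells per compound. Held 25 °C, 14:10 light-dark, five to seven days; percent mortality averaged over wells.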

In experiment [4] the test system is Green Peach Aphid (Myzus persicae, MYZUPE). Nature of the experiment: Bioassay on Green Peach Aphid (GPA), foliar spray on cabbage seedlings. The conditions noted are these: Table ABC Biological Results. On the procedure: Certain molecules disclosed in this document were tested against GPA using procedures described in the following example. In the reporting of the results, the “GPA & YFM Rating Table” was used (See Table Section). Cabbage seedlings grown in 3-inch pots, with 2-3 small (3-5 cm) true leaves, were used as test substrate. The seedlings were infested with 20-50 GPA (wingless adult and nymph stages) one day prior to chemical application. Four pots with individual seedlings were used for each treatment. Test molecules (2 mg) were dissolved in 2 mL of acetone/methanol (1:1) solvent, forming stock solutions of 1000 ppm test molecule. The stock solutions were diluted 5× with 0.025% Tween 20 in water to obtain the solution at 200 ppm test molecule. A hand-held aspirator-type sprayer was used for spraying a solution to both sides of […] leaves until runoff. Reference plants (solvent check) were sprayed with the diluent only containing 20% by volume of acetone/methanol (1:1) solvent. Treated plants were held in a holding room for three days at approximately 25° C. and ambient relative humidity (RH) prior to grading. […] Percent Control was measured by using Abbott's correction formula (W. S. Abbott, “A Method of Computing the Effectiveness of an Insecticide” J. Econ. Entomol. 18 (1925), pp. 265-267) as follows. […]

On to `C[C@H](NC(=O)CCC(F)(F)F)NC(=O)c1ccc(/C(F)=C/C(c2cc(Cl)c(F)c(Cl)c2)C(F)(F)F)cc1C(F)(F)F` (stereo partly drawn) [F17, 4-((Z)-3-(3,5-Dichloro-4-fluorophenyl)-1,4,4,4-tetrafluorobut-1-en-1-yl)-N—((R)-1-(4,4,4-trifluorobutanamido)ethyl)-2-(trifluoromethyl)benzamide], for which the pest or weed control at 50 µg/cm2 in experiment [1] and in experiment [3] was 50 to 100% in each case. Further, the YFM rating entry in experiment [2] is listed as “A (80-100)”. Moreover, in experiment [4], the GPA rating result is “B (More than 0-Less than 80)”.

With `C[C@H](NC(=O)CC(F)(F)F)NC(=O)c1ccc(/C(F)=C/C(c2cc(Cl)c(Br)c(Cl)c2)C(F)(F)F)cc1C(F)(F)F` (stereo partly drawn) [F31, 4-((Z)-3-(4-Bromo-3,5-dichlorophenyl)-1,4,4,4-tetrafluorobut-1-en-1-yl)-2-(trifluoromethyl)-N—((R)-1-(3,3,3-trifluoropropanamido)ethyl)benzamide], the pest or weed control at 50 µg/cm2 in experiment [1] and in experiment [3] was 50 to 100% in each case. For the same compound, the YFM rating result in experiment [2] is listed as “A (80-100)”. Moreover, the GPA rating result in experiment [4] was “B (More than 0-Less than 80)”.

On to `C[C@H](NC(=O)CCC(F)(F)F)NC(=O)c1ccc(/C(F)=C/C(c2cc(Br)cc(Br)c2)C(F)(F)F)cc1C(F)(F)F` (stereo partly drawn) [F23, 4-((Z)-3-(3,5-Dibromophenyl)-1,4,4,4-tetrafluorobut-1-en-1-yl)-N—((R)-1-(4,4,4-trifluorobutanamido)ethyl)-2-(trifluoromethyl)benzamide], for which the pest or weed control at 50 µg/cm2 in experiment [1] and in experiment [3] was 50 to 100% in each case. Moreover, the YFM rating entry in experiment [2] is “A (80-100)”.

With `C[C@H](NC(=O)CCC(F)(F)F)NC(=O)c1ccc(/C(F)=C/C(c2cc(Cl)cc(Cl)c2)C(F)(F)F)cc1C(F)(F)F` (stereo partly drawn) [F12, 4-((Z)-3-(3,5-Dichlorophenyl)-1,4,4,4-tetrafluorobut-1-en-1-yl)-N—((R)-1-(4,4,4-trifluorobutanamido)ethyl)-2-(trifluoromethyl)benzamide], the pest or weed control at 50 µg/cm2 in experiment [1] and in experiment [3] was 50 to 100% each time. The YFM rating result in experiment [2] is “A (80-100)”.
